# Experimental data from PubChem BioAssay (NCI).
# Values joined by “and” are separate entries in the source; they are usually repeats but may differ in a detail not shown here. Identical values can stand only once.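 96-well plates; 48 h exposure; 5 concentrations. Endpoints by linear interpolation between flanking doses. Not reached: highest tested concentration assigned. GI50 is the concentration that inhibits growth by half. TGI denotes the concentration required for complete inhibition of growth.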
# Test system: HCC-2998 colon
# Test: growth of human tumour cells (NCI), 48 h
Structure (SMILES),TGI,GI50
O=C(CC(=O)Nc1ccccc1)NNC(Sc1ccccc1)c1cc(N=Nc2ccc(Br)cc2)ccc1O (configuration not stated),> 10 µM,–
Cc1cc(C(=O)CSC(=S)SC(C)(C)C)ccc1Cl,30.3 µM,–
C=CC12CCN(CC1)C(C(O)c1ccnc3ccc(OC)cc13)C2 (configuration not stated),> 100 µM,> 100 µM
O=C(Nc1nc(-c2c[nH]c3ccccc23)cs1)c1n[nH]c(=O)c2ccccc12,> 100 µM,18.1 µM
CN(C)CCN1CCC(Cc2ccccc2)CC1,> 80 µM,> 80 µM
COc1cc2c3c(n(C)c(=O)c2cc1OC)-c1cc2c(cc1C3=O)OCO2,> 100 µM,–
COc1ccc(/C=C\c2cc(OC)c(OC)c(OC)c2)cc1OCC(=O)O,> 100 µM,–
O=C(CNc1ccc(Cl)cc1Cl)Nn1c(-c2ccccc2)nc2ccccc2c1=O,31.8 µM,–
O=C(Nc1ncc(Cc2cccc(C(F)(F)F)c2)s1)c1ccc2c(c1)OCCO2,17.5 µM,0.337 µM
NC(=O)c1cc(I)ccc1NC(=O)/C=C/c1ccccc1,30.9 µM,1.38 µM
COc1ccc(CNc2c3ccccc3nc3ccccc23)cc1F,5.27 µM,2.07 µM
CCn1cc(-c2ccnc3[nH]c(-c4cccc(CN(C)C)c4)cc23)c(-c2ccc(NC(=O)N(C)C)cc2)n1,21.5 µM and > 10 µM,7.29 µM and > 10 µM
CCN(Cc1c(F)cccc1OC)c1ccc(CO)c(Cl)c1,22.3 µM,7.33 µM
CCOC(=O)c1c(C)c2c(n1Cc1ccccc1)CSCC2=O,> 100 µM,25.4 µM

# Test system: SW-620 colon
# Test: growth of human tumour cells (NCI), 48 h
Structure (SMILES),GI50,TGI
Cc1nc2sccn2c1-c1nc2sccn2c1/C=C1/C(=O)Nc2ccccc21,2.32 µM,7.61 µM
Cc1cccc(NC2=C(Cl)C(=O)c3nc(C)ccc3C2=O)c1,1.64 µM,4.27 µM
COc1cc2c(cc1OCCCN1CCN(CCCOc3cc4c(cc3OC)C(=O)N3CC(F)(F)C[C@H]3C=N4)CC1)N=C[C@@H]1CC(F)(F)CN1C2=O,2.61 µM,12.5 µM
CCCCCCCCSC1=C(Cl)C(=O)C(OC)=C(OC)C1=O,–,84 µM
COC(=O)C1=CN(CC2=CC(=O)C(C)=CC2=O)C=C(C(=O)OC)C1c1ccccc1OC,18.5 µM,> 64.9 µM
COc1cccc2c1O/C(=C\c1ccc([N+](=O)[O-])s1)C2=O,0.46 µM,1.75 µM
COC(=O)/C=C/c1cc(OC(C)=O)c2c(c1)C(C(=O)OC)C(c1ccc(OC(C)=O)c(OC(C)=O)c1)O2 (configuration not stated),0.0468 µM,> 100 µM
C=C(C)C(C1C=C(CCC(C=O)=C(C)C)C(=O)O1)C1(OC)C=C(C)C(=O)O1 (configuration not stated),39.6 µM,> 100 µM
CCOC(=O)Nc1c(C)nc2ccccn12,> 100 µM,> 100 µM
CC(C)=CCC1=C(O)c2ccccc2C(=O)C1=O,> 100 µM and 34.6 µM and 22.9 µM,> 100 µM
O=[N+]([O-])c1ccccc1N=Nc1c(O)[nH]c2c(Cl)cc(Cl)cc12,–,> 100 µM
NC(=S)N/N=C/c1ncccc1O,3.3 µM,> 839 µM
C=C(CN(C)Cc1ccccc1)c1ccc(NC(=O)c2ccc(C(=C)CN(C)Cc3ccccc3)cc2)cc1,96.7 µM,> 100 µM
O=C(CC(=O)Nc1ccccc1)NNC(Sc1ccccc1)c1cc(N=Nc2ccc(Br)cc2)ccc1O (configuration not stated),–,> 10 µM
Cc1cc(C(=O)CSC(=S)SC(C)(C)C)ccc1Cl,–,68.3 µM
C=CC12CCN(CC1)C(C(O)c1ccnc3ccc(OC)cc13)C2 (configuration not stated),> 100 µM,> 100 µM
O=C(Nc1nc(-c2c[nH]c3ccccc23)cs1)c1n[nH]c(=O)c2ccccc12,1.91 µM,> 100 µM
CN(C)CCN1CCC(Cc2ccccc2)CC1,> 80 µM,> 80 µM
COc1cc2c3c(n(C)c(=O)c2cc1OC)-c1cc2c(cc1C3=O)OCO2,–,> 100 µM
COc1ccc(/C=C\c2cc(OC)c(OC)c(OC)c2)cc1OCC(=O)O,–,> 100 µM
O=C(CNc1ccc(Cl)cc1Cl)Nn1c(-c2ccccc2)nc2ccccc2c1=O,–,34.4 µM
O=C(Nc1ncc(Cc2cccc(C(F)(F)F)c2)s1)c1ccc2c(c1)OCCO2,0.352 µM,> 100 µM
NC(=O)c1cc(I)ccc1NC(=O)/C=C/c1ccccc1,0.48 µM,> 100 µM
COc1ccc(CNc2c3ccccc3nc3ccccc23)cc1F,2.51 µM,10.5 µM
CCn1cc(-c2ccnc3[nH]c(-c4cccc(CN(C)C)c4)cc23)c(-c2ccc(NC(=O)N(C)C)cc2)n1,0.566 µM and 0.533 µM,13.7 µM and > 10 µM
CCN(Cc1c(F)cccc1OC)c1ccc(CO)c(Cl)c1,0.714 µM,> 77 µM
CCOC(=O)c1c(C)c2c(n1Cc1ccccc1)CSCC2=O,17.4 µM,47 µM

# Test system: DU-145 prostate
# Test: growth of human tumour cells (NCI), 48 h
Structure (SMILES),GI50,TGI
Cc1nc2sccn2c1-c1nc2sccn2c1/C=C1/C(=O)Nc2ccccc21,4.64 µM,21.5 µM
Cc1cccc(NC2=C(Cl)C(=O)c3nc(C)ccc3C2=O)c1,1.27 µM,2.55 µM
COc1cc2c(cc1OCCCN1CCN(CCCOc3cc4c(cc3OC)C(=O)N3CC(F)(F)C[C@H]3C=N4)CC1)N=C[C@@H]1CC(F)(F)CN1C2=O,3.63 µM,13.3 µM
CCCCCCCCSC1=C(Cl)C(=O)C(OC)=C(OC)C1=O,–,40.5 µM
COC(=O)C1=CN(CC2=CC(=O)C(C)=CC2=O)C=C(C(=O)OC)C1c1ccccc1OC,16.8 µM,31.3 µM
COc1cccc2c1O/C(=C\c1ccc([N+](=O)[O-])s1)C2=O,> 23.9 µM,> 100 µM
COC(=O)/C=C/c1cc(OC(C)=O)c2c(c1)C(C(=O)OC)C(c1ccc(OC(C)=O)c(OC(C)=O)c1)O2 (configuration not stated),0.131 µM,> 100 µM
C=C(C)C(C1C=C(CCC(C=O)=C(C)C)C(=O)O1)C1(OC)C=C(C)C(=O)O1 (configuration not stated),> 100 µM,> 100 µM
CCOC(=O)Nc1c(C)nc2ccccn12,> 100 µM,> 100 µM
CC(C)=CCC1=C(O)c2ccccc2C(=O)C1=O,23.5 µM,> 100 µM
O=[N+]([O-])c1ccccc1N=Nc1c(O)[nH]c2c(Cl)cc(Cl)cc12,–,> 100 µM
NC(=S)N/N=C/c1ncccc1O,1.46 µM and 0.77 µM,17.1 µM and > 114 µM
C=C(CN(C)Cc1ccccc1)c1ccc(NC(=O)c2ccc(C(=C)CN(C)Cc3ccccc3)cc2)cc1,71.6 µM,> 100 µM
O=C(CC(=O)Nc1ccccc1)NNC(Sc1ccccc1)c1cc(N=Nc2ccc(Br)cc2)ccc1O (configuration not stated),–,> 10 µM
Cc1cc(C(=O)CSC(=S)SC(C)(C)C)ccc1Cl,–,> 100 µM
C=CC12CCN(CC1)C(C(O)c1ccnc3ccc(OC)cc13)C2 (configuration not stated),> 100 µM,> 100 µM
O=C(Nc1nc(-c2c[nH]c3ccccc23)cs1)c1n[nH]c(=O)c2ccccc12,3.33 µM,> 31 µM
CN(C)CCN1CCC(Cc2ccccc2)CC1,> 80 µM,> 80 µM
COc1cc2c3c(n(C)c(=O)c2cc1OC)-c1cc2c(cc1C3=O)OCO2,–,> 100 µM
COc1ccc(/C=C\c2cc(OC)c(OC)c(OC)c2)cc1OCC(=O)O,–,47.2 µM
O=C(CNc1ccc(Cl)cc1Cl)Nn1c(-c2ccccc2)nc2ccccc2c1=O,–,27.5 µM
O=C(Nc1ncc(Cc2cccc(C(F)(F)F)c2)s1)c1ccc2c(c1)OCCO2,0.35 µM,14.8 µM
NC(=O)c1cc(I)ccc1NC(=O)/C=C/c1ccccc1,0.352 µM,2.97 µM
COc1ccc(CNc2c3ccccc3nc3ccccc23)cc1F,3.65 µM,12.4 µM
CCn1cc(-c2ccnc3[nH]c(-c4cccc(CN(C)C)c4)cc23)c(-c2ccc(NC(=O)N(C)C)cc2)n1,3.63 µM and 1.97 µM,37.8 µM and > 10 µM
CCN(Cc1c(F)cccc1OC)c1ccc(CO)c(Cl)c1,17.8 µM,> 57.3 µM
CCOC(=O)c1c(C)c2c(n1Cc1ccccc1)CSCC2=O,21.9 µM,> 100 µM
